Assay results reported in ChEMBL document CHEMBL4334430, “A cell-based screening system for RNA polymerase I inhibitors” (Medchemcomm, 2019).
The source made the active and inactive calls. The calls are words filed in the database; no cut-off is given here.

Columns and labels:
Saccharomyces cerevisiae [1] = test: Inhibition of yeast RNA polymerase 1 in YBR140C cells expressing human RNA polymerase 1 promoter and rRNA assessed as reduction in cell growth at 390 to 1560 nM by UV-spectrophotometric analysis; format: cell-based
A2780 = test: Antiproliferative activity against human A2780 cells incubated for 4 days by MTT assay; format: functional, cell-based; conditions: A2780, 96 h
NCI-H460 = test: Antiproliferative activity against human H460 cells incubated for 4 days by MTT assay; format: functional, cell-based; conditions: NCI-H460, 96 h
Saccharomyces cerevisiae [2] = test: Inhibition of yeast RNA polymerase 1 in YBR140C cells expressing human RNA polymerase 1 promoter and rRNA assessed as reduction in human rDNA transcription at 390 to 3120 nM by qRT-PCR analysis; format: cell-based
Saccharomyces cerevisiae [3] = test: Inhibition of yeast RNA polymerase 1 in YBR140C cells expressing human RNA polymerase 1 promoter and rRNA assessed as reduction in human rDNA transcription at 312 to 2500 nM by qRT-PCR analysis; format: cell-based
Saccharomyces cerevisiae [4] = test: Inhibition of yeast RNA polymerase 1 in YBR140C cells expressing human RNA polymerase 1 promoter and rRNA assessed as reduction in cell growth at 126 to 2500 nM by UV-spectrophotometric analysis; format: cell-based

IC50 (A2780) [nM] | IC50 (NCI-H460) [nM] | Structure (SMILES) | inhibition (Saccharomyces cerevisiae [1]) | inhibition (Saccharomyces cerevisiae [2]) | inhibition (Saccharomyces cerevisiae [3]) | inhibition (Saccharomyces cerevisiae [4])
700 | 3500 | COCc1c(C(C)C)nc(C(C)C)c(/C=C/[C@@H](O)C[C@@H](O)CC(=O)O)c1-c1ccc(F)cc1 [CERIVASTATIN SODIUM] | Active | Active |  | 
120 |  | Cc1cnc(CNC(=O)c2c(=O)c3ccc(N4CCCN(C)CC4)nc3n3c2sc2ccccc23)cn1 [CX-5461] |  |  | Active | Active
